The values below come from ChEMBL document CHEMBL1201862, “PubChem BioAssay data set” (2004).

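Method: 48-hour compound exposure of cells in 96-well plates, five concentrations, linear interpolation of endpoints. The concentration for 50% growth inhibition is given as GI50.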 The source made the active and inactive calls. Cut-off read from the data, not from the text of the source: active = GI50 up to about 1.1 µM and inactive = higher.

Among the test systems are A498; CAKI-1; EKVX; HOP-62; KM12; LXFL 529; OVCAR-4; OVCAR-8; SF-295; SN12C; U-251; UO-31; A549; HL-60; BT-549; Hs-578T; MCF7; MDA-MB-435; NCI/ADR-RES; PC-3.
Assay in all cases: NCI-60 cell line screen, 48 h

For the compound `N#CC1C(=O)NC(=O)C1=O` (stereo not given), the GI50 in the test with A498, in the test with CAKI-1, in the test with EKVX, with HOP-62, with KM12 and in the test with LXFL 529 was > 100 µM (inactive) in each case. For the same compound, the GI50 with OVCAR-4, with OVCAR-8, in the test with SF-295, with SN12C, in the test with U-251 and in the test with UO-31 was > 100 µM (inactive) each time.

As for `Cc1ccc(/N=C/c2ccc3c(c2)OCO3)cc1C`, the GI50 with A498, with A549, with CAKI-1, with EKVX, in the test on HL-60 and in the test on KM12 was > 100 µM (inactive) each time. The GI50 with LXFL 529 is > 100 µM (inactive); in the test on OVCAR-8, > 100 µM (inactive); with SF-295 it was > 100 µM (inactive); in the test with SN12C, > 100 µM (inactive); in the test with U-251, 8.13 µM (inactive); in the test on UO-31, > 100 µM (inactive).

For `O=C(O)CC1CC=C[C@H]2c3cc4c(cc3C(=O)NC12)OCO4` (stereo not given in full), the GI50 with A549, with EKVX, in the test with HL-60, in the test with HOP-62, with KM12 and in the test with LXFL 529 was > 75 µM (inactive) each time. The GI50 in the test with OVCAR-8, with SF-295, in the test on SN12C, with U-251 and with UO-31 was > 75 µM (inactive) each time.

On to `O=C(CN1CCN(C(=O)OCc2ccccc2)CCN(CC(=O)N2CCCCC2)CCN(C(=O)OCc2ccccc2)CC1)N1CCCCC1`, for which the GI50 was 16.7 µM (inactive) in the test on A498; 20.8 µM (inactive) in the test with A549; 23.1 µM (inactive) in the test on BT-549; 5.04 µM (inactive) with CAKI-1; 24.9 µM (inactive) in the test on EKVX; 10.6 µM (inactive) in the test with HL-60. In addition, the GI50 in the test on HOP-62 was 19.5 µM (inactive); with Hs-578T it was 14.3 µM (inactive); in the test on KM12, 17.7 µM (inactive); with MCF7, 17.1 µM (inactive); in the test with MDA-MB-435, 16.1 µM (inactive); in the test on NCI/ADR-RES, 10.9 µM (inactive). Further, the GI50 in the test with OVCAR-4 was 4.8 µM (inactive); with OVCAR-8 it was 8.61 µM (inactive); with PC-3, 12.6 µM (inactive); with SF-295 it was 18.7 µM (inactive); in the test with SN12C, 11.6 µM (inactive); with U-251, 16.5 µM (inactive). Further, the GI50 with UO-31 was 3.19 µM (inactive).

In the case of `CC(=O)OCCc1cccnc1/C=N/O`, the GI50 in the test with A549, in the test on CAKI-1, in the test on EKVX, in the test with HL-60, in the test on HOP-62 and in the test on KM12 was > 100 µM (inactive) throughout. Further, the GI50 in the test with LXFL 529, in the test on OVCAR-4, in the test with OVCAR-8, with SF-295, in the test on SN12C and with U-251 was > 100 µM (inactive) each time. Moreover, the GI50 in the test with UO-31 was > 100 µM (inactive).

Consider `CC12CC(=O)OC(Cc3ccccc31)O2` (stereo not given), for which the GI50 with A549, in the test on EKVX, in the test on HL-60, in the test on HOP-62, in the test on KM12 and with LXFL 529 was > 100 µM (inactive) in each case. Also, the GI50 in the test on OVCAR-8, in the test with SF-295, in the test on SN12C, with U-251 and in the test with UO-31 was > 100 µM (inactive) throughout.

In the case of `CCOC(=O)C(=O)Nc1nc2c(s1)C(=O)c1ccccc1C2=O`, the GI50 was 16.1 µM (inactive) in the test with A498; 17.8 µM (inactive) in the test with A549; 18.5 µM (inactive) in the test with CAKI-1; 16.1 µM (inactive) with EKVX; 18.9 µM (inactive) in the test with HOP-62; 16 µM (inactive) with KM12. The GI50 was 13.4 µM (inactive) in the test with LXFL 529; 17.1 µM (inactive) in the test with OVCAR-4; 10.6 µM (inactive) with OVCAR-8; 16.5 µM (inactive) in the test with SN12C; 16.6 µM (inactive) with U-251; 14.8 µM (inactive) in the test with UO-31.

On to `COc1cc(O)c(C(=O)/C=C/c2ccc(OC)c(OCc3ccccc3)c2)c(OC)c1`, for which the GI50 with A549 is 64.6 µM (inactive); with CAKI-1, > 100 µM (inactive); in the test on EKVX, > 100 µM (inactive); in the test on HL-60, 8.67 µM (inactive); with HOP-62, > 100 µM (inactive); in the test with KM12, 31 µM (inactive). In addition, the GI50 with LXFL 529 is 5.45 µM (inactive); in the test on OVCAR-4, > 100 µM (inactive); with OVCAR-8, 6.84 µM (inactive); in the test with SF-295 it was 0.301 µM (active); in the test on SN12C, > 100 µM (inactive); in the test with U-251 it was > 100 µM (inactive). The GI50 in the test on UO-31 is > 100 µM (inactive).

On to `O=c1cc(-c2ccc(O)cc2)oc2cc(O)cc(O)c12` [APIGENIN], for which the GI50 with A549 was 42.9 µM (inactive); in the test on EKVX, 33.5 µM (inactive); in the test with HL-60, 29.7 µM (inactive); in the test on HOP-62 it was 43.6 µM (inactive); in the test with KM12, 23.1 µM (inactive); with LXFL 529, 18.2 µM (inactive). Also, the GI50 in the test with OVCAR-4 is 32.2 µM (inactive); with SF-295, 27.2 µM (inactive); in the test with SN12C, 30.4 µM (inactive); in the test on U-251, 22.6 µM (inactive); in the test on UO-31 it was 23.9 µM (inactive).

`C=C1C(=O)O[C@@H]2C(=O)[C@@H](C)[C@@H]3C=CC(=O)[C@@]3(C)[C@@H](OC(=O)/C(C)=C\C)[C@H]12` [MULTISTATIN]: the GI50 is 1.69 µM (inactive) in the test with A498; 10.6 µM (inactive) with A549; 0.689 µM (active) in the test with BT-549; 0.264 µM (active) with CAKI-1; 1.1 µM (active) with EKVX; 0.132 µM (active) in the test on HL-60. In addition, the GI50 with HOP-62 is 11.9 µM (inactive); in the test with Hs-578T, 6.44 µM (inactive); with KM12 it was 2.3 µM (inactive); with MCF7 it was 0.394 µM (active); with MDA-MB-435 it was 1.29 µM (inactive); in the test with NCI/ADR-RES, 2.37 µM (inactive). Besides, the GI50 with OVCAR-4 was 5.04 µM (inactive); with OVCAR-8, 1.73 µM (inactive); in the test with PC-3 it was 2.29 µM (inactive); in the test with SF-295 it was 13 µM (inactive); in the test with SN12C, 1.42 µM (inactive); with U-251, 2.43 µM (inactive). For the same compound, the GI50 in the test with UO-31 is 1.21 µM (inactive).

As to `O=C(O)CN(CC(=O)O)Cc1cc2c(cc1O)Oc1cc(O)c(CN(CC(=O)O)CC(=O)O)cc1C21OC(=O)c2ccccc21` [OFTASCEINE], the GI50 in the test on A498, in the test on A549, in the test with BT-549, in the test with CAKI-1, with EKVX and with HL-60 was > 100 µM (inactive) in each case. Moreover, the GI50 in the test with HOP-62, in the test on Hs-578T, in the test on KM12, with MCF7, in the test on MDA-MB-435 and with NCI/ADR-RES was > 100 µM (inactive) in each case. The GI50 in the test on OVCAR-4, in the test on OVCAR-8, in the test with PC-3, with SF-295, in the test on SN12C and in the test on U-251 was > 100 µM (inactive) each time. The GI50 in the test on UO-31 is > 100 µM (inactive).

Consider `OC[C@H]1O[C@@H](Oc2cc(O)cc(/C=C/c3ccc(O)cc3)c2)[C@H](O)[C@@H](O)[C@@H]1O` [PICEID], for which the GI50 with A498, with A549, in the test on BT-549, in the test with CAKI-1, in the test with EKVX and in the test on HL-60 was > 100 µM (inactive) in each case. The GI50 in the test with HOP-62, in the test with Hs-578T, with KM12, in the test on MCF7, in the test with MDA-MB-435 and with NCI/ADR-RES was > 100 µM (inactive) throughout. The GI50 in the test with OVCAR-4, in the test on OVCAR-8, in the test on PC-3, in the test with SF-295, with SN12C and in the test with U-251 was > 100 µM (inactive) in each case. In addition, the GI50 in the test with UO-31 is > 100 µM (inactive).

`O=C(/C=C/c1ccc(Oc2cc(C(=O)/C=C/c3ccc(O)cc3)c(O)cc2O)cc1)c1ccc(O)cc1O` [RHUSCHALCONE II]: the GI50 in the test with A498 was 2.65 µM (inactive); in the test with A549 it was 15.5 µM (inactive); in the test on BT-549 it was 9.84 µM (inactive); in the test with CAKI-1, 4.14 µM (inactive); in the test with EKVX, 13.2 µM (inactive); with HL-60 it was 4.14 µM (inactive). Further, the GI50 in the test with HOP-62 was 5.38 µM (inactive); in the test with Hs-578T, 7.28 µM (inactive); in the test with KM12 it was 2.15 µM (inactive); in the test on MCF7, 4.26 µM (inactive); with MDA-MB-435, 4.15 µM (inactive); with NCI/ADR-RES, 3.85 µM (inactive). The GI50 in the test with OVCAR-4 is 4.98 µM (inactive); in the test on OVCAR-8, 2.64 µM (inactive); in the test with PC-3, 5.27 µM (inactive); in the test on SF-295 it was 5.96 µM (inactive); in the test on SN12C, 4.41 µM (inactive); in the test on U-251, 3.89 µM (inactive). The GI50 in the test with UO-31 was 6.3 µM (inactive).
